Results from patent US20090215778A1, “Alpha-substituted Arylmethyl Piperazine Pyrazolo [1,5-alpha]Pyrimidine Amide Derivatives” (priority 2007, published 2009).
pIC50: −log10 of the molar value.

Legend:
[1] = target: T1, HIV Env six-helix bundle (6HB) structure (Human immunodeficiency virus type 1 group M subtype B, UniProt P04579); assay: Six-helix bundle (6HB) assay; format: cell-based, HIV-1 (strain RF)
T1 construct: H9 cells chronically infected with HIV-1 (H9/HIV-1RF); endogenous in cells; host or cells: H9 cells chronically infected with HIV-1 strain RF (Env is made from the virus in the infected cells, not by transfection)
In short: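 Chronically HIV-1 RF-infected H9 cells (12-40 days post-infection), 2.5×10^5 per well, were preincubated with compound for 30 min at 37 °C. sCD4 at 1 μg/mL was added for 1 h to trigger Env changes. 6HB-specific rabbit serum (1 h, 37 °C) was then added, followed by PE anti-rabbit (45 min, 4 °C), with flow cytometric fluorescence read-out.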

HIV-1, NL4-3 strain = assay: Virus infection assay (virus entry and single-cycle infection); format: cell-based; conditions: Human immunodeficiency virus 1, NL43, TZM-b1, read-out: Nl4
In short: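 TZM-b1 cells (CD4, CXCR4, CCR5; LTR-driven lacZ/luciferase reporters) were infected with HIV-1 NL4-3 (MOI 0.01) with 80 μg/mL DEAE-dextran in the presence of test compound, 4 h at 37 °C before adding complete medium. Infection was quantified one day post-infection as chemiluminescent β-galactosidase signal.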

T1 sequence (P04579 32-519): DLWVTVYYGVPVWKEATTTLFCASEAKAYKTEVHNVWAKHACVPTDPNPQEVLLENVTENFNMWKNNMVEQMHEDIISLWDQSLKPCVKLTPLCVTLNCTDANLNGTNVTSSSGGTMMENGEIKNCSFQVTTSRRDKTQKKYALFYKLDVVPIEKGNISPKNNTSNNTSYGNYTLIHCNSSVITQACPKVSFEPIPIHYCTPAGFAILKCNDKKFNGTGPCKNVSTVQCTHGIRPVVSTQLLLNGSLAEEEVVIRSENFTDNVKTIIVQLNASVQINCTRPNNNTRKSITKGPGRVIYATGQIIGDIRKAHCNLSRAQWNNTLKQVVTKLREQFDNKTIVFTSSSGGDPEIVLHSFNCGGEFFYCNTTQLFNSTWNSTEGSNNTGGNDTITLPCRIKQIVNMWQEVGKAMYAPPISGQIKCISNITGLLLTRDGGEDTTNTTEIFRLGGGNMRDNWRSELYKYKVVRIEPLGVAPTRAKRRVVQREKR
T1 sequence (P04579 520-865): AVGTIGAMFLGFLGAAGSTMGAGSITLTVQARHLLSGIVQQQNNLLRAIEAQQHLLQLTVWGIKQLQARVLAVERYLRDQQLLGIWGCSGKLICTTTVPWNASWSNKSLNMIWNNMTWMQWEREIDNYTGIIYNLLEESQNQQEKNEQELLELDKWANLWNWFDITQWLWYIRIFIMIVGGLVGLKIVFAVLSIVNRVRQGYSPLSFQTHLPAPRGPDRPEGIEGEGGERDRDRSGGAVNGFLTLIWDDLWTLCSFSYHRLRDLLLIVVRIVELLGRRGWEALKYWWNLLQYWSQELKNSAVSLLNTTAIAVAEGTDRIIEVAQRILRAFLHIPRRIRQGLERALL

Row | SMILES | pIC50 [1] | pIC50 (HIV-1, NL4-3 strain)
1 | COc1ccc(-c2nc3c(C(=O)N4CCN([C@@H](CO)c5c(C)noc5C)C[C@H]4C)cnn3c(C(F)(F)F)c2C)cc1 [methanone, [(2R)-4-[(1R)-1-(3,5-dimethyl-4-isoxazolyl)-2-hydroxyethyl]-2-methyl-1-piperazinyl][5-(4-methoxyphenyl)-6-methyl-7-(trifluoromethyl)pyrazolo[1,5-α]pyrimidin-3-yl]-] | 5.00 to 5.96 | 5.00 to 5.96
2 | COc1ccc(-c2nc3c(C(=O)N4CCN([C@H](C)c5ccc(F)cc5)C[C@H]4C)cnn3c(C(F)(F)F)c2C)cc1 [methanone, [(2R)-4-[(1R)-1-(4-fluorophenyl)ethyl]-2-methyl-1-piperazinyl][5-(4-methoxyphenyl)-6-methyl-7-(trifluoromethyl)pyrazolo[1,5-α]pyrimidin-3-yl]-] | > 6.00 | > 6.00
3 | COc1ccc(-c2nc3c(C(=O)N4CCN([C@H](CO)c5ccc(Cl)s5)C[C@H]4C)cnn3c(C(F)(F)F)c2C)cc1 [methanone, [(2R)-4-[(1R)-1-(5-chloro-2-thienyl)-2-hydroxyethyl]-2-methyl-1-piperazinyl][5-(4-methoxyphenyl)-6-methyl-7-(trifluoromethyl)pyrazolo[1,5-α]pyrimidin-3-yl]-] | > 6.00 | > 6.00
4 | COc1ccc(-c2nc3c(C(=O)N4CCN([C@@H](CO)c5cccnc5OC)C[C@H]4C)cnn3c(C(F)(F)F)c2C)cc1 [methanone, [(2R)-4-[(1R)-2-hydroxy-1-(2-methoxy-3-pyridinyl)ethyl]-2-methyl-1-piperazinyl][5-(4-methoxyphenyl)-6-methyl-7-(trifluoromethyl)pyrazolo[1,5-α]pyrimidin-3-yl]-] | > 6.00 | > 6.00
5 | COc1ccc(-c2nc3c(C(=O)N4CCN([C@@H](CO)c5ccccc5OC)C[C@H]4C)cnn3c(C(F)(F)F)c2C)cc1 [methanone, [(2R)-4-[(1R)-2-hydroxy-1-(2-methoxyphenyl)ethyl]-2-methyl-1-piperazinyl][5-(4-methoxyphenyl)-6-methyl-7-(trifluoromethyl)pyrazolo[1,5-α]pyrimidin-3-yl]-] | > 6.00 | > 6.00
6 | COc1ccc(-c2nc3c(C(=O)N4CCN([C@@H](CO)c5cccc(OC)c5)C[C@H]4C)cnn3c(C(F)(F)F)c2C)cc1 [methanone, [(2R)-4-[(1R)-2-hydroxy-1-(3-methoxyphenyl)ethyl]-2-methyl-1-piperazinyl][5-(4-methoxyphenyl)-6-methyl-7-(trifluoromethyl)pyrazolo[1,5-α]pyrimidin-3-yl]-] | > 6.00 | > 6.00
7 | COc1ccc(-c2nc3c(C(=O)N4CCN([C@H](CO)c5cc(C)cs5)C[C@H]4C)cnn3c(C(F)(F)F)c2C)cc1 [methanone, [(2R)-4-[(1R)-2-hydroxy-1-(4-methyl-2-thienyl)ethyl]-2-methyl-1-piperazinyl][5-(4-methoxyphenyl)-6-methyl-7-(trifluoromethyl)pyrazolo[1,5-α]pyrimidin-3-yl]-] | > 6.00 | > 6.00
8 | COc1ccc(-c2nc3c(C(=O)N4CCN([C@@H](CO)c5cscc5C)C[C@H]4C)cnn3c(C(F)(F)F)c2C)cc1 [methanone, [(2R)-4-[(1R)-2-hydroxy-1-(4-methyl-3-thienyl)ethyl]-2-methyl-1-piperazinyl][5-(4-methoxyphenyl)-6-methyl-7-(trifluoromethyl)pyrazolo[1,5-α]pyrimidin-3-yl]-] | > 6.00 | > 6.00
9 | COc1ccc(-c2nc3c(C(=O)N4CCN([C@H](CO)c5ccc(C)s5)C[C@H]4C)cnn3c(C(F)(F)F)c2C)cc1 [methanone, [(2R)-4-[(1R)-2-hydroxy-1-(5-methyl-2-thienyl)ethyl]-2-methyl-1-piperazinyl][5-(4-methoxyphenyl)-6-methyl-7-(trifluoromethyl)pyrazolo[1,5-α]pyrimidin-3-yl]-] | > 6.00 | > 6.00
10 | COc1ccc(-c2nc3c(C(=O)N4CCN([C@@H](CO)c5ccccc5)C[C@H]4C)cnn3c(C(F)(F)F)c2C)cn1 [methanone, [(2R)-4-[(1R)-2-hydroxy-1-phenylethyl]-2-methyl-1-piperazinyl][5-(6-methoxy-3-pyridinyl)-6-methyl-7-(trifluoromethyl)pyrazolo[1,5-α]pyrimidin-3-yl]-] | > 6.00 | > 6.00
11 | COc1ccc(-c2nc3c(C(=O)N4CCN([C@@H](CO)c5ccccc5)C[C@H]4C)cnn3c(C(F)(F)F)c2OC)cc1 [methanone, [(2R)-4-[(1R)-2-hydroxy-1-phenylethyl]-2-methyl-1-piperazinyl][6-methoxy-5-(4-methoxyphenyl)-7-(trifluoromethyl)pyrazolo[1,5-α]pyrimidin-3-yl]-] | > 6.00 | > 6.00
12 | COC[C@@H](c1ccccc1)N1CCN(C(=O)c2cnn3c(C(F)(F)F)c(C)c(-c4ccc(OC)cc4)nc23)[C@H](C)C1 [methanone, [(2R)-4-[(1R)-2-methoxy-1-phenylethyl]-2-methyl-1-piperazinyl][5-(4-methoxyphenyl)-6-methyl-7-(trifluoromethyl)pyrazolo[1,5-α]pyrimidin-3-yl]-] | > 6.00 | > 6.00
13 | COc1ccc(-c2nc3c(C(=O)N4CCN([C@@H](C)c5oc(C)nc5C)C[C@H]4C)cnn3c(C(F)(F)F)c2C)cc1 [methanone, [(2R)-4-[(1S)-1-(2,4-dimethyl-5-oxazolyl)ethyl]-2-methyl-1-piperazinyl][5-(4-methoxyphenyl)-6-methyl-7-(trifluoromethyl)pyrazolo[1,5-α]pyrimidin-3-yl]-] | 5.00 to 5.96 | 5.00 to 5.96
14 | COc1ccc(-c2nc3c(C(=O)N4CCN([C@H](CO)c5cccc(OC)c5F)C[C@H]4C)cnn3c(C(F)(F)F)c2C)cc1 [methanone, [(2R)-4-[(1S)-1-(2-fluoro-3-methoxyphenyl)-2-hydroxyethyl]-2-methyl-1-piperazinyl][5-(4-methoxyphenyl)-6-methyl-7-(trifluoromethyl)pyrazolo[1,5-α]pyrimidin-3-yl]-] | > 6.00 | > 6.00
15 | COc1ccc(-c2nc3c(C(=O)N4CCN([C@H](CO)c5ccccc5F)C[C@H]4C)cnn3c(C(F)(F)F)c2C)cc1 [methanone, [(2R)-4-[(1S)-1-(2-fluorophenyl)-2-hydroxyethyl]-2-methyl-1-piperazinyl][5-(4-methoxyphenyl)-6-methyl-7-(trifluoromethyl)pyrazolo[1,5-α]pyrimidin-3-yl]-] | > 6.00 | > 6.00
16 | COc1ccc(-c2nc3c(C(=O)N4CCN([C@@H](CO)c5ccco5)C[C@H]4C)cnn3c(C(F)(F)F)c2C)cc1 [methanone, [(2R)-4-[(1S)-1-(2-furanyl)-2-hydroxyethyl]-2-methyl-1-piperazinyl][5-(4-methoxyphenyl)-6-methyl-7-(trifluoromethyl)pyrazolo[1,5-α]pyrimidin-3-yl]-] | > 6.00 | > 6.00
17 | COc1ccc(-c2nc3c(C(=O)N4CCN([C@@H](C)c5ccco5)C[C@H]4C)cnn3c(C(F)(F)F)c2C)cc1 [methanone, [(2R)-4-[(1S)-1-(2-furanyl)ethyl]-2-methyl-1-piperazinyl][5-(4-methoxyphenyl)-6-methyl-7-(trifluoromethyl)pyrazolo[1,5-α]pyrimidin-3-yl]-] | > 6.00 | > 6.00
